The source of these data is ChEMBL document CHEMBL3860071, “Discovery and structure-activity relationship studies of quinolinone derivatives as potent IL-2 suppressive agents” (Bioorg Med Chem, 2016).

Data set [1] in a line: Cytotoxicity against human Jurkat T cells assessed as cell survival at 10 uM measured after 3 days by MTT assay. It is filed as toxicity, cell-based. To be noted: read-out: Survival. Background: Tetrazolium assays rely on reduction of a dye to a coloured formazan, in cell work by metabolically active cells.
The test system of data set [2] is Jurkat. Put plainly: Immunosuppressive activity in human PMA/ionomycin stimulated Jurkat T cells assessed as suppression of IL2 production at 1 uM pretreated with cells followed by PMA/ionomycin stimulation measured after 13 hrs by ELISA. Format: functional.
Data set [3] relates to Jurkat. Kind of data set: Immunosuppressive activity in human anti-CD3/anti-CD28 stimulated Jurkat T cells assessed as suppression of IL2 production at 10 uM pretreated with cells followed by anti-CD3/CD28 stimulation measured after 13 hrs by ELISA. It is filed as functional. On the technique in general: An ELISA detects its analyte on a solid surface through an enzyme-linked reagent.

For data set [4], the system named is Jurkat. Kind of data set: Immunosuppressive activity in human PMA/ionomycin stimulated Jurkat T cells assessed as suppression of IL2 production pretreated with cells followed by PMA/ionomycin stimulation measured after 13 hrs by ELISA. Format: functional, cell-based.
Data set [5] deals with Jurkat. Put plainly: Immunosuppressive activity in human PMA/ionomycin stimulated Jurkat T cells assessed as suppression of IL2 production at 10 uM pretreated with cells followed by PMA/ionomycin stimulation measured after 13 hrs by ELISA. It is filed as functional.

As to `COc1ccc(Cn2c(=O)c(C(=O)NCCc3ccc(C)cc3)cc3c(N)cccc32)cc1`, in data set [1], the viability at 72 h, 10 µM amounted to 99%.
Usually inhibition stands for the drop in the measured response relative to a control, in per cent. Consider `O=C(NCCc1ccccc1)c1cc2c([N+](=O)[O-])cccc2n(Cc2ccc(Cl)cc2)c1=O`, for which, in data set [2], the inhibition at 1 µM came to 39%. The viability at 72 h, 10 µM in data set [1] worked out at 97%.
One may read the IC50 as the concentration needed to halve the response being measured. For `CCc1ccc(Cn2c(=O)c(C(=O)NCCc3ccccc3)cc3c([N+](=O)[O-])cccc32)cc1`, the inhibition at 10 µM in data set [3] was 81%. Besides, in data set [4], the IC50 stood at 155 nM. For the same molecule, the viability at 72 h, 10 µM in data set [1] was determined as 96%.
Consider `O=C(NCCc1ccccc1)c1cc2c([N+](=O)[O-])cccc2n(Cc2ccc([N+](=O)[O-])cc2)c1=O`, for which, in data set [4], the IC50 was 353 nM. Moreover, the viability at 72 h, 10 µM in data set [1] is 97%.
As to `COc1ccc(Cn2c(=O)c(C(=O)NCCc3ccccc3)cc3c([N+](=O)[O-])cccc32)cc1`, in data set [4], the IC50 amounted to 924 nM. For the same molecule, the viability at 72 h, 10 µM in data set [1] is 96%.
Consider `COc1ccc(CCNC(=O)c2cc3c(N)cccc3n(Cc3ccc(OC)cc3)c2=O)cc1`, for which the inhibition at 1 µM in data set [2] worked out at 25%. Further, in data set [1], the viability at 72 h, 10 µM was found to be 96%.
`O=C(NCCc1ccccc1)c1cc2c([N+](=O)[O-])cccc2n(Cc2ccccc2)c1=O`: the viability at 72 h, 10 µM in data set [1] is 91%.
On to `COc1ccc(Cn2c(=O)c(C(=O)NCCc3ccc(Cl)cc3)cc3c(N)cccc32)cc1`, for which the inhibition at 1 µM in data set [2] stood at 19%. Besides, the viability at 72 h, 10 µM in data set [1] is 96%.
Regarding `COCCCNC(=O)c1cc2c(N)cccc2n(Cc2ccc(OC)cc2)c1=O`, the viability at 72 h, 10 µM in data set [1] is 97%.
For the molecule `COc1ccc(Cn2c(=O)c(C(=O)NCCc3ccc(O)cc3)cc3c(N)cccc32)cc1`, in data set [2], the inhibition at 1 µM is 20%. Further, the viability at 72 h, 10 µM in data set [1] came to 97%.
The matching figures for `COc1ccc(Cn2c(=O)c(C(=O)NCCc3ccc(OC)c(O)c3)cc3c(N)cccc32)cc1`: 37% and 99%.
Turning to `COc1ccc(Cn2c(=O)c(C(=O)NCCc3ccc(Br)cc3)cc3c(N)cccc32)cc1`, in data set [2], the inhibition at 1 µM came to 38%. Moreover, in data set [1], the viability at 72 h, 10 µM was 93%.
Consider `O=C(NCCc1ccccc1)c1cc2c([N+](=O)[O-])cccc2n(Cc2ccc(F)cc2)c1=O`, for which the IC50 in data set [4] came out at 720 nM. In addition, the viability at 72 h, 10 µM in data set [1] is 98%.
`CC(C)(C)c1ccc(Cn2c(=O)c(C(=O)NCCc3ccccc3)cc3c([N+](=O)[O-])cccc32)cc1`: the IC50 in data set [4] worked out at 386 nM. For the same molecule, the viability at 72 h, 10 µM in data set [1] is 94%.
Take `COc1ccc(Cn2c(=O)c(C(=O)NCc3ccccc3)cc3c(N)cccc32)cc1`: in data set [2], the inhibition at 1 µM came to 30%. In addition, the viability at 72 h, 10 µM in data set [1] was 98%.
As to `C/C=C/C[C@@H](C)[C@@H](O)[C@H]1C(=O)N[C@@H](CC)C(=O)N(C)CC(=O)N(C)[C@@H](CC(C)C)C(=O)N[C@@H](C(C)C)C(=O)N(C)[C@@H](CC(C)C)C(=O)N[C@@H](C)C(=O)N[C@H](C)C(=O)N(C)[C@@H](CC(C)C)C(=O)N(C)[C@@H](CC(C)C)C(=O)N(C)[C@@H](C(C)C)C(=O)N1C` [CYCLOSPORINE], the IC50 in data set [4] came to 11 nM.
Consider `Cc1ccc(Cn2c(=O)c(C(=O)NCCc3ccccc3)cc3c([N+](=O)[O-])cccc32)cc1`, for which the viability at 72 h, 10 µM in data set [1] stood at 81%.
On to `COc1ccc(Cn2c(=O)c(C(=O)NCCCc3ccccc3)cc3c(N)cccc32)cc1`, for which, in data set [2], the inhibition at 1 µM was found to be 11%. Further, the viability at 72 h, 10 µM in data set [1] is 97%.
On to `COc1ccc(Cn2c(=O)c(C(=O)NCCc3ccc(O)c(O)c3)cc3c(N)cccc32)cc1`, for which the inhibition at 1 µM in data set [2] amounted to 14%. Besides, the viability at 72 h, 10 µM in data set [1] was 98%.
For `COc1ccc(Cn2c(=O)c(C(=O)NCC(C)C)cc3c(N)cccc32)cc1`, the viability at 72 h, 10 µM in data set [1] worked out at 99%.
Consider `COc1ccc(Cn2c(=O)c(C(=O)NCCc3ccc4c(c3)OCO4)cc3c(N)cccc32)cc1`, for which the inhibition at 1 µM in data set [2] was 31%. Also, in data set [1], the viability at 72 h, 10 µM was 96%.
With `CC(C)c1ccc(Cn2c(=O)c(C(=O)NCCc3ccccc3)cc3c(Cl)cccc32)cc1`, the IC50 in data set [4] worked out at 256 nM. Also, in data set [1], the viability at 72 h, 10 µM came out at 91%.
Turning to `COc1ccc(Cn2c(=O)c(C(=O)NCCc3ccccc3)cc3c(Cl)cccc32)cc1`, the inhibition at 1 µM in data set [2] worked out at 44%. Moreover, the viability at 72 h, 10 µM in data set [1] stood at 87%.
In the case of `CCN(C(=O)c1c(O)c2c(Cl)cccc2n(C)c1=O)c1ccccc1` [LAQUINIMOD], the inhibition at 10 µM in data set [5] came to 16%.
For `COc1ccc(Cn2c(=O)c(C(=O)NCCc3ccccc3)cc3c(N)cccc32)cc1`, in data set [2], the inhibition at 1 µM is 41%. Also, in data set [1], the viability at 72 h, 10 µM was 98%.
For `O=C(NCCc1ccccc1)c1cc2c([N+](=O)[O-])cccc2n(Cc2ccc(Br)cc2)c1=O`, in data set [4], the IC50 stood at 780 nM. In data set [1], the viability at 72 h, 10 µM was 64%.
For the molecule `N#Cc1ccc(Cn2c(=O)c(C(=O)NCCc3ccccc3)cc3c([N+](=O)[O-])cccc32)cc1`, the inhibition at 1 µM in data set [2] was determined as 28%. The viability at 72 h, 10 µM in data set [1] was determined as 95%.
With `COc1cccc(Cn2c(=O)c(C(=O)NCCc3ccccc3)cc3c([N+](=O)[O-])cccc32)c1`, the inhibition at 1 µM in data set [2] worked out at 16%. The viability at 72 h, 10 µM in data set [1] worked out at 97%.
Regarding `O=C(NCCc1ccccc1)c1cc2c([N+](=O)[O-])cccc2n(Cc2ccc(OC(F)(F)F)cc2)c1=O`, the inhibition at 10 µM in data set [3] was found to be 79%. In addition, the IC50 in data set [4] is 160 nM. In data set [1], the viability at 72 h, 10 µM was 96%.
As for `CCc1ccc(Cn2c(=O)c(C(=O)NCCc3ccccc3)cc3c(Cl)cccc32)cc1`, the IC50 in data set [4] is 401 nM. In addition, the viability at 72 h, 10 µM in data set [1] was determined as 97%.
As to `COc1ccc(Cn2c(=O)c(C(=O)NCCc3ccccc3)cc3ccc([N+](=O)[O-])cc32)cc1`, the viability at 72 h, 10 µM in data set [1] is 95%.
On to `COc1ccc(Cn2c(=O)c(C(=O)NCCc3ccncc3)cc3c(N)cccc32)cc1`, for which the inhibition at 1 µM in data set [2] turned out to be 16%. In data set [1], the viability at 72 h, 10 µM was found to be 93%.
Turning to `CCc1ccc(CCNC(=O)c2cc3c(N)cccc3n(Cc3ccc(OC)cc3)c2=O)cc1`, the viability at 72 h, 10 µM in data set [1] is 97%.
